In patent US8349835B2, “Aromatic ring fused triazine derivatives and uses thereof” (Shenyang Pharmaceutical University, priority 2008, dated 2013):

What was measured:
[1] = test system: Rat aortic ring; assay: Rat Aortic Ring Assay; format: cell-based; details: for Rat Aortic Ring Assay (10 ug/ml), result in words: observed on the sixth day; for inhibition at 10 µg/mL: Rattus norvegicus, 10 ug/ml
Excerpt: Rat Aortic Ring Assay • 1) 6 week old SD […] (Sprague Dawley) were selected for the experiments. Cleaned abdominal skin with 75% ethanol to disinfect, and then anesthetized the mice with ether, • 2) Carefully removed the abdominal aortas and transferred the aortas to normal saline. Excessive vascular tissues were carefully removed with scissors. • 3) The aortas were rinsed with normal saline until no blood stain remained. • 4) Sectioned the aortas into one millimeter depth arterial slices with ophthalmological scissors. • 5) Add 50 μL pre-thawed Matrigel to each well of the pre-cooled 96 well cell culture plates, and embedded the ring-shaped mouse aortas in collagen gel. • 6) Incubated for 60 minutes at 37° C. to solidificate the gel. • 7) Added DMEM culture solution containing 10% FBS, along with different concentrations of the selected compounds into the wells and cultured in the incubator. Every compound was repeated in no less than 3 wells. • 8) Replaced with the fresh medium and changed the medicine once on the third day. • 9) Took out the pates on the sixth day, and observed the vascular growth with Microscope (OLYMPUS, DP70, Japan) and took photographs(×100). Randomly chose 3 arterial rings to photograph and calculated the area covered by micro-vascular with Image Pro Plus software. The inhibition rate is calculated as:
[formula] • Evaluation criteria: ⋆inhibition rate[…]; ⋆⋆inhibition rate 60-90%; ⋆⋆⋆inhibition rate>90%.

[2] = target: VEGFR-2 (Homo sapiens, UniProt P35968); assay: VEGFR-2 inhibition rate test (kinase assay kit, colorimetric ELISA); details: concentration not given
Chain of VEGFR-2 (P35968 20-1356): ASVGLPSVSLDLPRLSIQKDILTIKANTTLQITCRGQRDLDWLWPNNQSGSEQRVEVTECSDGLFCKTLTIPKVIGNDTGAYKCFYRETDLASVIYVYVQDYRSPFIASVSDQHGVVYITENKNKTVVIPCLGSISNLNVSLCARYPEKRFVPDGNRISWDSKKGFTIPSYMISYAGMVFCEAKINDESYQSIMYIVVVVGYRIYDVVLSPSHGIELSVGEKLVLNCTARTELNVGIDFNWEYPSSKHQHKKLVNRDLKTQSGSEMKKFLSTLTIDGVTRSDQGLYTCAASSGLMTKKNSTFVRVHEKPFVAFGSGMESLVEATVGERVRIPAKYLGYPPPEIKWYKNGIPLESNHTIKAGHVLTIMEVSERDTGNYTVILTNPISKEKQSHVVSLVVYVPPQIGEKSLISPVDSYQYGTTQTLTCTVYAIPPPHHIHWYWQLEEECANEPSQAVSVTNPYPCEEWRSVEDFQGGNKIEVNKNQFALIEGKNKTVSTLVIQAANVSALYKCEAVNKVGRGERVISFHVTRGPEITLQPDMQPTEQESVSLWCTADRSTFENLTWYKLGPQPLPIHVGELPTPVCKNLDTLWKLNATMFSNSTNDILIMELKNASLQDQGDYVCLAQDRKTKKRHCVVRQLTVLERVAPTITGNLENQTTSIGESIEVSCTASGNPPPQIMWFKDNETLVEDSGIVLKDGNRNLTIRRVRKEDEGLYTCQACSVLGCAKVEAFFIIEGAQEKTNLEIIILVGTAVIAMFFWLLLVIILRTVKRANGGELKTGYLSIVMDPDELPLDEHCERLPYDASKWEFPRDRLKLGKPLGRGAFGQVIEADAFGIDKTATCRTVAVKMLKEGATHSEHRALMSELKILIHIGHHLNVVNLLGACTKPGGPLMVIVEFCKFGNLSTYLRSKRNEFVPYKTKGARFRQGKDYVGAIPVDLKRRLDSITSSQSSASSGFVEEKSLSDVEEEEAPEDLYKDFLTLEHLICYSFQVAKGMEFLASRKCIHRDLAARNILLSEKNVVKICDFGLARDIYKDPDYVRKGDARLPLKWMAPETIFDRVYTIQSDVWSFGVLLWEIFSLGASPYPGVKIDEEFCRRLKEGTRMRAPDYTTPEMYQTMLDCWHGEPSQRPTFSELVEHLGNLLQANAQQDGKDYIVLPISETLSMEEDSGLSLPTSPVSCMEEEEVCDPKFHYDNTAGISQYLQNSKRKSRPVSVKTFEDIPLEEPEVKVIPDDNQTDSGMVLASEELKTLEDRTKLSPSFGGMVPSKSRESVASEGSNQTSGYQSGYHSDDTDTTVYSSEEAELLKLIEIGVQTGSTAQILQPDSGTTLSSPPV

[3] = compared with blank control, sixth day

| Kinase inhibition rate (VEGFR-2) [2] | SMILES | further results |
| --- | --- | --- |
| – | COc1cc2c(Nc3ccc(F)c(Cl)c3)nnnc2cc1OCCCN1CCOCC1 [Example 94, 6-methoxy-7-(3-morpholinopropoxy)-4-(3-chloro-4-fluoroanilino)-benzo[d][1,2,3]triazine] | Rat Aortic Ring Assay (10 ug/ml), result in words [1]: No significant inhibition |
| −0.53 | CCCCCOc1cc2nnnc(Nc3cc(Cl)cc(Cl)c3)c2cc1OC [Example 46, 6-methoxy-7-pentyloxy-4-(3,5-dichloroanilino)-benzo[d][1,2,3]triazine] | – |
| −22.99 | Fc1ccc(Nc2nnnc3ccccc23)cc1 [Example 2, 4-(4-fluoroanilino)-benzo[d][1,2,3]triazine] | – |
| – | COc1cc2c(Nc3ccc(F)c(Cl)c3)nnnc2cc1OCCCN1CCCCC1.Cl [Example 95, 6-methoxy-7-(3-(piperidin-1-yl)-propoxy)-4-(3-chloro-4-fluoroanilino)-benzo[d][1,2,3]triazine hydrochloride] | Rat Aortic Ring Assay (10 ug/ml), result in words [1]: Vascular growth was significantly inhibited, vascular ring was dead. |
| 45.98 | CCOc1cc2nnnc(Nc3ccccc3)c2cc1OC [Example 28, 6-methoxy-7-ethoxy-4-anilino-benzo[d][1,2,3]triazine] | inhibition at 10 µg/mL [1, 3]: ~40% |
| 3.20 | CCCCCOc1cc2nnnc(Nc3cccc(Cl)c3)c2cc1OC [Example 54, 6-methoxy-7-pentyloxy-4-(3-chloroanilino)-benzo[d][1,2,3]triazine] | – |
| −2.67 | Clc1cc(Cl)cc(Nc2nnnc3ccccc23)c1 [Example 10, 4-(3,5-dichloroanilino)-1,2,3-benzotriazine] | – |
| 21.14 | COc1cc2c(Nc3cccc(Cl)c3)nnnc2cc1OCCCCl [Example 71, 6-methoxy-7-chloropropoxy-4-(3-chloroanilino)-benzo[d][1,2,3]triazine] | – |
| −6.95 | Fc1cc(Nc2nnnc3ccccc23)ccc1Br [Example 8, 4-(3-fluoro-4-bromoanilino)-benzo[d][1,2,3]triazine] | – |
| 2.13 | CCCCCOc1cc2nnnc(Nc3cccc(OC(F)(F)F)c3)c2cc1OC [Example 52, 6-methoxy-7-pentyloxy-4-(3-trifluoromethoxyanilino)-benzo[d][1,2,3]triazine] | – |
| −5.34 | Fc1cc(F)cc(Nc2nnnc3ccccc23)c1 [Example 5, 4-(3,5-difluoroanilino)-benzo[d][1,2,3]triazine] | – |
| 7.75 | CCCCCOc1cc2nnnc(Nc3ccc(C)cc3)c2cc1OC [Example 60, 6-methoxy-7-pentyloxy-4-(4-methylanilino)-benzo[d][1,2,3]triazine] | – |
| – | COc1cc2c(Nc3ccc(F)c(Cl)c3)nnnc2cc1OCCCN1CCN(C)CC1.Cl [Example 96, 6-methoxy-7-(3-N-methylpiperazin-1-yl-propoxy)-4-(3-chloro-4-fluoroanilino)-benzo[d][1,2,3]triazin-4-amine hydrochloride] | Rat Aortic Ring Assay (10 ug/ml), inhibition [1, 3]: Vessel formation became less, about 30% inhibition |
| 3.47 | Fc1ccc(Nc2nnnc3ccccc23)cc1Cl [Example 1, 4-(3-chloro-4-fluoroanilino)-benzo[d][1,2,3]triazine] | – |
| −5.61 | CCCCCOc1cc2nnnc(Nc3cccc(Br)c3)c2cc1OC [Example 58, 6-methoxy-7-pentyloxy-4-(3-bromoanilino)-benzo[d][1,2,3]triazine] | – |
| −22.45 | CCCCCOc1cc2nnnc(Nc3ccccc3)c2cc1OC [Example 44, 6-methoxy-7-pentyloxy-4-anilino-benzo[d][1,2,3]triazine] | – |
| 10.42 | CCCCCOc1cc2nnnc(Nc3ccccc3F)c2cc1OC [Example 57, 6-methoxy-7-pentyloxy-4-(2-fluoroanilino)-benzo[d][1,2,3]triazine] | – |
| 10.73 | COc1cc2c(Nc3cc(F)cc(F)c3)nnnc2cc1OCCCCl [Example 64, 6-methoxy-7-chloropropoxy-4-(3,5-difluoroanilino)-benzo[d][1,2,3]triazine] | inhibition at 10 µg/mL [1, 3]: > 50% |
| – | CCOc1cc2nnnc(Nc3ccc(C(F)(F)F)cc3)c2cc1OC [Example 35, 6-methoxy-7-ethoxy-4-(4-trifluoromethylanilino)-benzo[d][1,2,3]triazine] | inhibition at 10 µg/mL [1, 3]: ~40% |
| 1.60 | Fc1ccc(Nc2nnnc3ccccc23)cc1C(F)(F)F [Example 9, 4-(3-trifluoromethyl-4-fluoroanilino)-benzo[d][1,2,3]triazine] | – |
| 43.56 | CCOc1cc2nnnc(Nc3ccc(C)cc3)c2cc1OC [Example 43, 6-methoxy-7-ethoxy-4-(4-methylanilino)-benzo[d][1,2,3]triazine] | Rat Aortic Ring Assay (10 ug/ml), result in words [1]: No significant inhibition |

| SMILES | Kinase inhibition rate (VEGFR-2) [2] | further results |
| --- | --- | --- |
| CCCCOc1cc2nnnc(Nc3cccc(C(F)(F)F)c3)c2cc1OC [Example 17, 6-methoxy-7-n-butoxy-4-(3-trifluoromethylanilino)-benzo[d][1,2,3]triazine] | −5.34 | Rat Aortic Ring Assay (10 ug/ml), result in words [1]: No significant inhibition compared with the blank control |
| CCCCOc1cc2nnnc(Nc3ccccc3)c2cc1OC [Example 11, 6-methoxy-7-butoxy-4-anilino-benzo[d][1,2,3]triazine] | −4.27 | – |
| CCCCOc1cc2nnnc(Nc3ccc(Br)c(F)c3)c2cc1OC [Example 12, 6-methoxy-7-n-butoxy-4-(3-fluoro-4-bromoanilino)-benzo[d][1,2,3]triazine] | 9.09 | – |
| CCCCOc1cc2nnnc(Nc3ccc(F)cc3)c2cc1OC [Example 26, 6-methoxy-7-n-butoxy-4-(4-fluoroanilino)-benzo[d][1,2,3]triazine] | 9.89 | – |
| CCCCOc1cc2nnnc(Nc3cc(F)cc(F)c3)c2cc1OC [Example 14, 6-methoxy-7-n-butoxy-4-(3,5-difluoroanilino)-benzo[d][1,2,3]triazine] | −0.80 | – |
| CCCCOc1cc2nnnc(Nc3ccc(C(F)(F)F)cc3)c2cc1OC [Example 18, 6-methoxy-7-n-butoxy-4-(4-trifluoromethylanilino)-benzo[d][1,2,3]triazine] | 3.20 | Rat Aortic Ring Assay (10 ug/ml), result in words [1]: No significant inhibition |
| CCCCOc1cc2nnnc(Nc3ccc(Cl)cc3)c2cc1OC [Example 16, 6-methoxy-7-n-butoxy-4-(4-chloroanilino)-benzo[d][1,2,3]triazine] | −12.03 | – |
